Measurements as given in patent US7517884B2 (Kalypsys Inc., priority 1998, dated 2009).

Tests used:
Assay type in all cases: cell-based, murine and human
Details in all cases: GAL4-PPAR LBD chimera
PPAR-alpha = target: T1, PPAR-alpha (UniProt Q07869); test: PPAR-alpha transactivation assay (GAL4 chimera, luciferase reporter) in CV-1 cells
T1 sequence (Q07869 1-468): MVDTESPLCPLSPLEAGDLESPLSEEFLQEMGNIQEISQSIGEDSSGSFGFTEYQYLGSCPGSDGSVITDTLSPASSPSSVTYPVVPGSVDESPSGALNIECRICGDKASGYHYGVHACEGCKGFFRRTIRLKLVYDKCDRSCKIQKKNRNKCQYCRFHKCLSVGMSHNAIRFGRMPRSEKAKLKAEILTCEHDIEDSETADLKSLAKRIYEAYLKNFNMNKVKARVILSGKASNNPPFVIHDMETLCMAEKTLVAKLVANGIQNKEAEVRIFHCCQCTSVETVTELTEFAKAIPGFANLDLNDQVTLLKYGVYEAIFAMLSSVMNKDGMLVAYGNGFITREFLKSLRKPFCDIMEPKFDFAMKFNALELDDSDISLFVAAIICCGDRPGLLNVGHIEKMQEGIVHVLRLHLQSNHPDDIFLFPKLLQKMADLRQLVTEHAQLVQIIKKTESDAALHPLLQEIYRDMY
Outline: (§1)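 CV-1 cells transiently transfected with murine or human PPAR-alpha, -gamma or -delta ligand-binding domain fused to GAL4 DNA-binding domain plus a GAL4-site luciferase reporter. After replating in phenol-red-free DME with 5% delipidated calf serum, cells were exposed to compound 20-24 h; luciferase read-out gave EC50.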

PPAR-delta = target: T2, PPAR-delta (UniProt Q03181); test: PPAR-delta transactivation assay (GAL4 chimera, luciferase reporter) in CV-1 cells
T2 sequence (Q03181 1-441): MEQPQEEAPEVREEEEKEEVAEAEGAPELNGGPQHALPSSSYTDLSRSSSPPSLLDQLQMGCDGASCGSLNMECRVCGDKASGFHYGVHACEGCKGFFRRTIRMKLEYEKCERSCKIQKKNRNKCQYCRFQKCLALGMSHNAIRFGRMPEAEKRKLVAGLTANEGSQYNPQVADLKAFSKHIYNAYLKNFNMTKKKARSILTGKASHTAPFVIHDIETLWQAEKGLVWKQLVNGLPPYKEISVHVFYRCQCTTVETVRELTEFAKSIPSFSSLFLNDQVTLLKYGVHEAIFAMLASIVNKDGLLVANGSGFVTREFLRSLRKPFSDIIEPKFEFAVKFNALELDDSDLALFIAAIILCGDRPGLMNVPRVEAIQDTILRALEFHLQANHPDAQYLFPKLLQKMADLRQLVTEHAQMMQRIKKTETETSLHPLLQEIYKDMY
Outline: as §1

PPAR-gamma = target: T3, PPAR-gamma (UniProt P37231); test: PPAR-gamma transactivation assay (GAL4 chimera, luciferase reporter) in CV-1 cells
T3 sequence (P37231 1-505): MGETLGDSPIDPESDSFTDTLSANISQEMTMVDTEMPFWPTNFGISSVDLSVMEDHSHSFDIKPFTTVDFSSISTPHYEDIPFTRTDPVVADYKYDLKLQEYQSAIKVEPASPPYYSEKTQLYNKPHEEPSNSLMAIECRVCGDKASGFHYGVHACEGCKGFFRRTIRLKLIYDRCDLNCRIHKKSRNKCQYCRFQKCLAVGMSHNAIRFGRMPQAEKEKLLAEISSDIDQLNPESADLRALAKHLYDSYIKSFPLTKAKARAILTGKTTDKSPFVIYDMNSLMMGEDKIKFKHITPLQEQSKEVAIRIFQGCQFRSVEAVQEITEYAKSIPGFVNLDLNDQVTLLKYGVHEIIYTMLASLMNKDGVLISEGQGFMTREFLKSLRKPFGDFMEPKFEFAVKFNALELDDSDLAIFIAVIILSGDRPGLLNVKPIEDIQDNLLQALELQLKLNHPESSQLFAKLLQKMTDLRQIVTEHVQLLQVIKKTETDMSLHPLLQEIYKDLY
Outline: as §1

Row | SMILES | EC50 (PPAR-alpha) | EC50 (PPAR-delta) | EC50 (PPAR-gamma)
1 | O=C(O)Cn1ccc2ccc(S(=O)(=O)N3CCN(c4ccc(OC(F)(F)F)cc4)CC3)cc21 [Example 90, {6-[4-(4-Trifluoromethoxy-phenyl)-piperazine-1-sulfonyl]-indol-1-yl}-acetic acid] | 5 to 100 µM | < 5 µM | 5 to 100 µM
2 | O=C(O)CN1CCc2ccc(S(=O)(=O)N3CCN(c4ccc(OC(F)(F)F)cc4)CC3)cc21 [Example 91, {6-[4-(4-trifluoromethoxy-phenyl)-piperazine-1-sulfonyl]-2,3-dihydro-indol-1-yl}-acetic acid] | 5 to 100 µM | < 5 µM | < 5 µM
3 | O=C(O)C1Cc2cccc(S(=O)(=O)N3CCN(c4ccc(Cl)cc4)CC3)c2C1 (stereo not drawn) [Example 92, 4-[4-(4-chloro-phenyl)-piperazine-1-sulfonyl]-indan-2-carboxylic acid] | 5 to 100 µM | < 5 µM | 5 to 100 µM
4 | C[C@H]1CN(c2ccc(OC(F)(F)F)cc2)CCN1S(=O)(=O)c1cccc2c1CC(C(=O)O)C2 (stereo partly drawn) [Example 93, 4-[2-(S)-Methyl-4-(4-trifluoromethoxy-phenyl)-piperazine-1-sulfonyl]-indan-2-carboxylic acid] | 5 to 100 µM | < 5 µM | 5 to 100 µM
5 | C[C@H]1CN(c2ccc(C(F)(F)F)cn2)CCN1S(=O)(=O)c1cccc2c1CC(C(=O)O)C2 (stereo partly drawn) [Example 94, 4-[2-(S)-Methyl-4-(5-trifluoromethyl-pyridin-2-yl)-piperazine-1-sulfonyl]-indan-2-carboxylic acid] | 5 to 100 µM | < 5 µM | 5 to 100 µM
6 | C[C@@H]1CN(Cc2ccc(OC(F)(F)F)cc2)C[C@H](C)N1S(=O)(=O)c1cccc2c1CC(C(=O)O)C2 (stereo partly drawn) [Example 95, 4-[cis-2,6-dimethyl-4-(4-trifluoromethoxyl-benzyl)-piperazine-1-sulfonyl]-indan-2-carboxylic acid] | 5 to 100 µM | < 5 µM | 5 to 100 µM
7 | C[C@@H]1CN(Cc2ccc(C(F)(F)F)cc2)C[C@H](C)N1S(=O)(=O)c1cccc2c1CC(C(=O)O)C2 (stereo partly drawn) [Example 96, 4-[cis-2,6-dimethyl-4-(4-trifluoromethyl-benzyl)-piperazine-1-sulfonyl]-indan-2-carboxylic acid] | > 100 µM | < 5 µM | 5 to 100 µM
8 | O=C(O)C1Cc2cccc(S(=O)(=O)N3CCN(Cc4ccc(C(F)(F)F)cc4)CC3)c2C1 (stereo not drawn) [Example 97, 4-[4-(4-trifluoromethyl-benzyl)-piperazine-1-sulfonyl]-indan-2-carboxylic acid] | 5 to 100 µM | < 5 µM | 5 to 100 µM
9 | O=C(O)C1Cc2cccc(S(=O)(=O)N3CCN(Cc4ccc(OC(F)(F)F)cc4)CC3)c2C1 (stereo not drawn) [Example 98, 4-[4-(4-trifluoromethoxy-benzyl)-piperazine-1-sulfonyl]-indan-2-carboxylic acid] | 5 to 100 µM | < 5 µM | < 5 µM
10 | C[C@@H]1CN(c2ccc(OC(F)(F)F)cn2)C[C@H](C)N1S(=O)(=O)c1cccc2c1CC(C(=O)O)C2 (stereo partly drawn) [Example 99] | 5 to 100 µM | < 5 µM | 5 to 100 µM
11 | C[C@@H]1CN(c2ccc(OC(F)(F)F)cc2)C[C@H](C)N1S(=O)(=O)c1ccc2scc(CC(=O)O)c2c1 [Example 100, {5-[cis-2,6-dimethyl-4-(4-trifluoromethoxy-phenyl)-piperazine-1-sulfonyl]-benzo[b]thiophen-3-yl}-acetic acid] | 5 to 100 µM | < 5 µM | 5 to 100 µM
12 | C[C@@H]1CN(c2ccc(SC(F)(F)F)cc2)C[C@H](C)N1S(=O)(=O)c1cccc2c1CC(C(=O)O)C2 (stereo partly drawn) [Example 101, 4-[cis-2,6-dimethyl-4-(4-trifluoromethylsulfanyl-phenyl)-piperazine-1-sulfonyl]-indan-2-carboxylic acid] | 5 to 100 µM | < 5 µM | 5 to 100 µM
13 | O=C(O)C1Cc2cccc(S(=O)(=O)N3CCN(c4ccc(OC(F)(F)F)cc4)CC3)c2C1 (stereo not drawn) [Example 102, 4-[4-(-trifluoromethoxy-phenyl)-piperazine-1-sulfonyl]-indan-2-carboxylic acid] | < 5 µM | < 5 µM | < 5 µM
14 | C[C@@H]1CN(c2ccc(Cl)cc2Cl)C[C@H](C)N1S(=O)(=O)c1ccc2c(c1)C(C(=O)O)CC2 (stereo partly drawn) [Example 103, 6-[4-(2,4-dichloro-phenyl)-cis-2,6-dimethyl-piperazine-1-sulfonyl]-indan-1-carboxylic acid] | 5 to 100 µM | < 5 µM | 5 to 100 µM
15 | C[C@@H]1CN(c2ccc(C(F)(F)F)cc2)C[C@H](C)N1S(=O)(=O)c1ccc2c(c1)C(C(=O)O)CC2 (stereo partly drawn) [Example 104, 6-[cis-2,6-dimethyl-4-(4-trifluoromethyl-phenyl)-piperazine-1-sulfonyl]-indan-1-carboxylic acid] | < 5 µM | < 5 µM | 5 to 100 µM
16 | C[C@@H]1CN(c2ccc(C(F)(F)F)cc2)C[C@H](C)N1S(=O)(=O)c1cccc2c1CC(C(=O)O)C2 (stereo partly drawn) [Example 105, 4-[cis-2,6-Dimethyl-4-(4-trifluoromethyl-phenyl)-piperazine-1-sulfonyl]-indan-2-carboxylic acid] | 5 to 100 µM | < 5 µM | 5 to 100 µM
17 | C[C@@H]1CN(c2ccc(C(C)(C)C)cc2)C[C@H](C)N1S(=O)(=O)c1cccc2c1CC(C(=O)O)C2 (stereo partly drawn) [Example 106, 4-[4-(4-tert-butyl-phenyl)-cis-2,6-dimethyl-piperazine-1-sulfonyl]-indan-2-carboxylic acid] | 5 to 100 µM | < 5 µM | 5 to 100 µM
18 | C[C@@H]1CN(c2cc(Cl)c(C(F)(F)F)cn2)C[C@H](C)N1S(=O)(=O)c1cccc2c1CC(C(=O)O)C2 (stereo partly drawn) [Example 107, 4-[4-(4-Chloro-5-trifluoromethyl-pyridin-2-yl)-cis-2,6-dimethylpiperazine-1-sulfonyl]-indan-2-carboxylic acid] | > 100 µM | < 5 µM | > 100 µM
19 | C[C@@H]1CN(c2ccc(OC(F)(F)F)cc2)C[C@H](C)N1S(=O)(=O)c1cccc2c1CC(C(N)=O)C2 (stereo partly drawn) [Example 108, 4-[cis-2,6-dimethyl-4-(4-trifluoromethoxy-phenyl)-piperazine-1-sulfonyl]-indan-2-carboxylic acid amide] | 5 to 100 µM | < 5 µM | 5 to 100 µM
20 | C[C@@H]1CN(c2ccc(OC(F)(F)F)cc2)C[C@H](C)N1S(=O)(=O)c1cccc2c1CC(c1nnn[nH]1)C2 (stereo partly drawn) [Example 109, cis-2,6-dimethyl-1-[2-(1H-tetrazol-5-yl)-indane-4-sulfonyl]-4-(4-trifluoromethoxy-phenyl)-piperazine] | > 100 µM | < 5 µM | 5 to 100 µM
21 | C[C@@H]1CN(Cc2ccc(OC(F)(F)F)cc2)C[C@H](C)N1S(=O)(=O)c1ccc2scc(CC(=O)O)c2c1 [Example 110, {5-[cis-2,6-dimethyl-4-(4-trifluoromethoxy-benzyl)-piperazine-1-sulfonyl]-benzo[b]thiophen-3-yl}-acetic acid] | > 100 µM | < 5 µM | 5 to 100 µM
22 | C[C@@H]1CN(Cc2ccc(Cl)c(Cl)c2)C[C@H](C)N1S(=O)(=O)c1cccc2c1CC(C(=O)O)C2 (stereo partly drawn) [Example 111] | > 100 µM | < 5 µM | 5 to 100 µM
23 | O=C(O)C1Cc2cccc(S(=O)(=O)N3CCN(c4cccc(OCC(F)(F)F)c4)CC3)c2C1 (stereo not drawn) [Example 112, 4-{4-[3-(2,2,2-trifluoro-ethoxy)-phenyl]-piperazine-1-sulfonyl}-indan-2-carboxylic acid] | 5 to 100 µM | 5 to 100 µM | 5 to 100 µM
